Assay results reported in the NIST ThermoML archive (doi:10.1016/j.jct.2015.02.011).

Assay: xn = mol fraction of the nth substance listed
Conditions: 100.7 kPa, Liquid; for speed of sound: Frequency=3 MHz, Sing-around technique in a fixed-path interferometer; for mass density: Vibrating tube method

CCCCCCn1cc[n+](C)c1.F[P-](F)(F)(F)(F)F [1-hexyl-3-methylimidazolium hexafluorophosphate] + C1CCOC1
Conditions	mass density [kg/m3]	speed of sound [m/s]
293.15 K, x1 = 0.1036	1001.33	1328.7
293.15 K, x1 = 0.2002	1074.85	1349.2
293.15 K, x1 = 0.2868	1123.69	1366.6
293.15 K, x1 = 0.4134	1175.92	1385.4
293.15 K, x1 = 0.5222	1209.22	1398.2
293.15 K, x1 = 0.6239	1233.91	1408.8
293.15 K, x1 = 0.6951	1248.83	1414.7
293.15 K, x1 = 0.7978	1267.15	1423.7
293.15 K, x1 = 0.8953	1282.62	1430.4
293.15 K, x1 = 1	1296.72	1437.7
298.15 K, x1 = 0.1036	996.523	1308.8
298.15 K, x1 = 0.2002	1070.1	1330.9
298.15 K, x1 = 0.2868	1119.03	1348.8
298.15 K, x1 = 0.4134	1171.43	1370
298.15 K, x1 = 0.5222	1204.92	1383.3
298.15 K, x1 = 0.6239	1229.78	1394.6
298.15 K, x1 = 0.6951	1244.72	1400.1
298.15 K, x1 = 0.7978	1263.02	1409.8
298.15 K, x1 = 0.8953	1278.55	1417.1
298.15 K, x1 = 1	1292.62	1424.3
303.15 K, x1 = 0.1036	991.33	1287.5
303.15 K, x1 = 0.2002	1065.16	1311.7
303.15 K, x1 = 0.2868	1114.11	1331.2
303.15 K, x1 = 0.4134	1166.92	1352.9
303.15 K, x1 = 0.5222	1200.49	1367.7
303.15 K, x1 = 0.6239	1225.49	1379.7
303.15 K, x1 = 0.6951	1240.35	1386.4
303.15 K, x1 = 0.7978	1258.87	1395.8
303.15 K, x1 = 0.8953	1274.54	1403.8
303.15 K, x1 = 1	1288.61	1411.5
308.15 K, x1 = 0.1036	986.423	1267.3
308.15 K, x1 = 0.2002	1060.21	1293.6
308.15 K, x1 = 0.2868	1109.47	1314.3
308.15 K, x1 = 0.4134	1162.51	1338.2
308.15 K, x1 = 0.5222	1196.52	1353.7
308.15 K, x1 = 0.6239	1221.41	1365.4
308.15 K, x1 = 0.6951	1236.28	1372.3
308.15 K, x1 = 0.7978	1255.02	1382.1
308.15 K, x1 = 0.8953	1270.73	1390.9
308.15 K, x1 = 1	1284.72	1399
313.15 K, x1 = 0.1036	981.583	1247
313.15 K, x1 = 0.2002	1055.56	1275.7
313.15 K, x1 = 0.2868	1105.02	1298
313.15 K, x1 = 0.4134	1158.19	1322.6
313.15 K, x1 = 0.5222	1192.16	1339.2
313.15 K, x1 = 0.6239	1217.23	1351.9
313.15 K, x1 = 0.6951	1232.35	1358.4
313.15 K, x1 = 0.7978	1251.08	1369.7
313.15 K, x1 = 0.8953	1266.85	1379.6
313.15 K, x1 = 1	1280.82	1386.9
318.15 K, x1 = 0.1036	976.176	1226.8
318.15 K, x1 = 0.2002	1050.65	1257.8
318.15 K, x1 = 0.2868	1100.21	1281.7
318.15 K, x1 = 0.4134	1153.59	1307.3
318.15 K, x1 = 0.5222	1187.55	1324.1
318.15 K, x1 = 0.6239	1212.63	1337.8
318.15 K, x1 = 0.6951	1227.99	1345.7
318.15 K, x1 = 0.7978	1246.87	1357.4
318.15 K, x1 = 0.8953	1262.74	1367.7
318.15 K, x1 = 1	1276.37	1375
323.15 K, x1 = 0.1036	971.026	1207.5
323.15 K, x1 = 0.2002	1045.83	1240.6
323.15 K, x1 = 0.2868	1095.6	1265.7
323.15 K, x1 = 0.4134	1148.94	1291.2
323.15 K, x1 = 0.5222	1183.5	1309.2
323.15 K, x1 = 0.6239	1208.58	1323.8
323.15 K, x1 = 0.6951	1224.2	1332.8
323.15 K, x1 = 0.7978	1243.02	1345.3
323.15 K, x1 = 0.8953	1258.69	1355.6
323.15 K, x1 = 1	1272.45	1363.3

CCCCCCCC[n+]1ccn(C)c1.F[P-](F)(F)(F)(F)F [1-octyl-3-methylimidazolium hexafluorophosphate] + C1CCOC1
Conditions	mass density [kg/m3]	speed of sound [m/s]
293.15 K, x1 = 0.0767	972.545	1319.1
293.15 K, x1 = 0.1791	1048.06	1338.4
293.15 K, x1 = 0.2783	1097.51	1356
293.15 K, x1 = 0.3996	1139.52	1371.5
293.15 K, x1 = 0.5198	1169.49	1384.1
293.15 K, x1 = 0.612	1187.49	1392.2
293.15 K, x1 = 0.6957	1201.25	1399
293.15 K, x1 = 0.7754	1212.53	1405.2
293.15 K, x1 = 0.8991	1227.92	1414
293.15 K, x1 = 1	1238.77	1421.2
298.15 K, x1 = 0.0767	967.476	1297.5
298.15 K, x1 = 0.1791	1043.39	1320.2
298.15 K, x1 = 0.2783	1092.94	1339.2
298.15 K, x1 = 0.3996	1135.15	1355.5
298.15 K, x1 = 0.5198	1165.32	1368.6
298.15 K, x1 = 0.612	1183.35	1376.8
298.15 K, x1 = 0.6957	1197.12	1383.9
298.15 K, x1 = 0.7754	1208.52	1390.5
298.15 K, x1 = 0.8991	1223.83	1399.8
298.15 K, x1 = 1	1234.79	1406.5
303.15 K, x1 = 0.0767	962.388	1276.5
303.15 K, x1 = 0.1791	1038.59	1302.6
303.15 K, x1 = 0.2783	1088.35	1322.5
303.15 K, x1 = 0.3996	1130.86	1340.1
303.15 K, x1 = 0.5198	1161.03	1353.2
303.15 K, x1 = 0.612	1179.13	1361.9
303.15 K, x1 = 0.6957	1193.04	1369.2
303.15 K, x1 = 0.7754	1204.52	1376.1
303.15 K, x1 = 0.8991	1219.78	1385.8
303.15 K, x1 = 1	1230.84	1392.4
308.15 K, x1 = 0.0767	957.488	1254.8
308.15 K, x1 = 0.1791	1033.77	1283.4
308.15 K, x1 = 0.2783	1083.82	1304.2
308.15 K, x1 = 0.3996	1126.53	1323.2
308.15 K, x1 = 0.5198	1157	1338.3
308.15 K, x1 = 0.612	1175.28	1347.8
308.15 K, x1 = 0.6957	1189.11	1355.3
308.15 K, x1 = 0.7754	1200.62	1362.2
308.15 K, x1 = 0.8991	1216.13	1371.3
308.15 K, x1 = 1	1227.09	1379
313.15 K, x1 = 0.0767	952.422	1231.1
313.15 K, x1 = 0.1791	1028.9	1263.7
313.15 K, x1 = 0.2783	1079.26	1286.5
313.15 K, x1 = 0.3996	1122.17	1309.5
313.15 K, x1 = 0.5198	1152.84	1324.6
313.15 K, x1 = 0.612	1171.22	1334
313.15 K, x1 = 0.6957	1185.14	1341.6
313.15 K, x1 = 0.7754	1196.65	1348.4
313.15 K, x1 = 0.8991	1212.37	1357.6
313.15 K, x1 = 1	1223.3	1365.8
318.15 K, x1 = 0.0767	947.162	1209
318.15 K, x1 = 0.1791	1024.04	1242.4
318.15 K, x1 = 0.2783	1074.69	1268.7
318.15 K, x1 = 0.3996	1117.75	1292.1
318.15 K, x1 = 0.5198	1148.57	1309.3
318.15 K, x1 = 0.612	1167.05	1319.7
318.15 K, x1 = 0.6957	1181.01	1327
318.15 K, x1 = 0.7754	1192.68	1333.4
318.15 K, x1 = 0.8991	1208.44	1342.7
318.15 K, x1 = 1	1219.5	1351.2
323.15 K, x1 = 0.0767	941.999	1185.7
323.15 K, x1 = 0.1791	1019.03	1222.6
323.15 K, x1 = 0.2783	1069.89	1250.7
323.15 K, x1 = 0.3996	1113.1	1276.2
323.15 K, x1 = 0.5198	1144.07	1294.4
323.15 K, x1 = 0.612	1162.61	1305.3
323.15 K, x1 = 0.6957	1176.74	1313
323.15 K, x1 = 0.7754	1188.63	1319.2
323.15 K, x1 = 0.8991	1204.28	1329.8
323.15 K, x1 = 1	1215.42	1338
